In patent publication US9932309B2, “2-oxo-3,4-dihydropyridine-5-carboxylates and their use” (UNIVERSITE DE LILLE 2 DROIT ET SANTE, priority 2014, dated 2018):

Legend:
mTGR5 = molecular target: T1, mTGR5 (Mus musculus, UniProt Q80SS6); assay: TGR5/CRE Luciferase Assay (mTGR5); format: cell-based; conditions: for EC50: HEK 293 cells co-transfected with pCMV AC6-TGR5m and pCRE TA-Luciferase, overnight incubation; for mTGR5 % trans: percentage of the 10 μM LCA value, HEK 293 cells transfected with mTGR5
T1 construct: expressed in transfected cells; host or cells: HEK293 cells, transiently co-transfected with the pCRE TA-Luciferase reporter
T1 sequence (Q80SS6 1-329): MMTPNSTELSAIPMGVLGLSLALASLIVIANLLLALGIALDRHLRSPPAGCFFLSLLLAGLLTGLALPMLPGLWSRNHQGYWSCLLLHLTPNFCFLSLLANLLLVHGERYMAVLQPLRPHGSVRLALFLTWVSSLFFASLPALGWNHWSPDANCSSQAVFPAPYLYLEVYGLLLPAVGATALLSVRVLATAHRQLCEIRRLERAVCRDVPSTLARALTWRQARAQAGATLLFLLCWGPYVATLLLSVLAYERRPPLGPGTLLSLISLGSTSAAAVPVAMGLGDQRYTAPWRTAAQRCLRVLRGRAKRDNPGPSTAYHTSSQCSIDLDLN
Protocol: (§1) TGR5/CRE Luciferase Assay
(§2) In the following Tables TGR5 activation by compounds of the invention and subsequent increase in intracellular cAMP were evaluated using a luciferase reporter gene assay. Human embryonic kidney (HEK) 293 cells were transiently co-transfected with pCMV tag4b-TGR5 h (to follow hTGR5 activation) or pCMV AC6-TGR5m (to follow mTGR5 activation) expression plasmids and the pCRE TA-Luciferase reporter plasmid using the JET PEI reagent (Polyplus transfection). Transfected cells were seeded in 96-well plates and incubated overnight with the test compounds at increasing concentrations tested in duplicate. Lithocolic acid (LCA) at 10 μM was used as a positive reference compound. The cAMP-dependent luciferase expression was followed using the BrightGlo reagent according to the manufacturer (Promega) instructions. Luminescence was read with a Mithras plate reader (Berthold) or a Victor3™ V1420 (Perkin Elmer). […] Concentration-response curves were fitted by a nonlinear regression analysis to a 4 parameter logistic equation

hTGR5 = molecular target: T2, hTGR5 (Homo sapiens, UniProt Q8TDU6); assay: TGR5/CRE Luciferase Assay (hTGR5); format: cell-based; conditions: for EC50: HEK 293 cells co-transfected with pCMV tag4b-TGR5h and pCRE TA-Luciferase, overnight incubation; for hTGR5 % trans: percentage of the 10 μM LCA value, HEK 293 cells transfected with hTGR5
T2 construct: expressed in transfected cells; host or cells: HEK293 cells, transiently co-transfected with the pCRE TA-Luciferase reporter
T2 sequence (Q8TDU6 1-330): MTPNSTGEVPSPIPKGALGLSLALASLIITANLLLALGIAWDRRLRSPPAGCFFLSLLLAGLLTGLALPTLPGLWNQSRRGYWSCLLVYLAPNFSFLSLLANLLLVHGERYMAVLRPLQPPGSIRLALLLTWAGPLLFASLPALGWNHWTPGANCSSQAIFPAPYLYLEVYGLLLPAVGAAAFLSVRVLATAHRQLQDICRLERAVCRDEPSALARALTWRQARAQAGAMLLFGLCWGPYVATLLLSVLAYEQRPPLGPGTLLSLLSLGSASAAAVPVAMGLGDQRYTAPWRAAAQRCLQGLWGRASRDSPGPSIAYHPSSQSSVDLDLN
Protocol: as §1, §2

Row | SMILES | EC50 (mTGR5) | mTGR5 % trans (mTGR5) | EC50 (hTGR5) | hTGR5 % trans (hTGR5)
1 | COCCOc1ccc(COC(=O)C2=C(C)N(C[C@H]3CCCO3)C(=O)C[C@H]2c2ccc(Cl)cc2)cc1 (racemic) [Example 136, 4-(2-methoxyethoxy)phenyl]methyl (4S)-4-(4-chlorophenyl)-6-methyl-2-oxo-1-[[(2R)-tetrahydrofuran-2-yl]methyl]-3,4-dihydropyridine-5-carboxylate and 4-(2-methoxyethoxy)phenyl]methyl (4R)-4-(4-chlorophenyl)-6-methyl-2-oxo-1-[[(2S)-tetrahydrofuran-2-yl]methyl]-3,4-dihydropyridine-5-carboxylate] | 40 nM | 111% | 20 nM | 93%
2 | CC1=C(C(=O)OC2CCc3ccccc32)[C@H](c2ccc(Cl)cc2)CC(=O)N1C[C@H]1CCCO1 (mixture of isomers) [Example 137, Indan-1-yl (4S)-4-(4-chlorophenyl)-6-methyl-2-oxo-1-[[(2R)-tetrahydrofuran-2-yl]methyl]-3,4-dihydropyridine-5-carboxylate] | 930 nM | 40% | 380 nM | 70%
3 | CC1=C(C(=O)OCc2ccccn2)[C@H](c2ccc(Cl)cc2)CC(=O)N1C[C@H]1CCCO1 (racemic) [Example 145, 2-pyridylmethyl (4S)-4-(4-chlorophenyl)-6-methyl-2-oxo-1-[[(2R)-tetrahydrofuran-2-yl]methyl]-3,4-dihydropyridine-5-carboxylate and 2-pyridylmethyl (4R)-4-(4-chlorophenyl)-6-methyl-2-oxo-1-[[(2S)-tetrahydrofuran-2-yl]methyl]-3,4-dihydropyridine-5-carboxylate] | 2500 nM | 74% | 1000 nM | 72%
4 | CC1=C(C(=O)OCc2cccnc2)[C@H](c2ccc(Cl)cc2)CC(=O)N1C[C@H]1CCCO1 (racemic) [Example 146, 3-pyridylmethyl (4S)-4-(4-chlorophenyl)-6-methyl-2-oxo-1-[[(2R)-tetrahydrofuran-2-yl]methyl]-3,4-dihydropyridine-5-carboxylate and 3-pyridylmethyl (4R)-4-(4-chlorophenyl)-6-methyl-2-oxo-1-[[(2S)-tetrahydrofuran-2-yl]methyl]-3,4-dihydropyridine-5-carboxy late] | 450 nM | 77% | 350 nM | 78%
5 | COCCOc1ccc(COC(=O)C2=C(C)N(C[C@@H]3CCCO3)C(=O)C[C@H]2c2ccc(Cl)cc2)cc1 (racemic) [Example 147, [4-(2-methoxyethoxy)phenyl]methyl (4S)-4-(4-chlorophenyl)-6-methyl-2-oxo-1-[[(2S)-tetrahydrofuran-2-yl]methyl]-3,4-dihydropyridine-5-carboxylate and [4-(2-methoxyethoxy)phenyl]methyl (4R)-4-(4-chlorophenyl)-6-methyl-2-oxo-1-[[(2R)-tetrahydrofuran-2-yl]methyl]-3,4-dihydropyridine-5-carboxylate] | 450 nM | 112% | 190 nM | 77%
6 | COc1ccccc1COC(=O)C1=C(C)N(C[C@H]2CCCO2)C(=O)C[C@H]1c1ccc(Cl)c(Cl)c1 (racemic) [Example 149, (2-methoxyphenyl)methyl (4S)-4-(3,4-dichlorophenyl)-6-methyl-2-oxo-1-[[(2R)-tetrahydrofuran-2-yl]methyl]-3,4-dihydropyridine-5-carboxylate and (2-methoxyphenyl)methyl (4R)-4-(3,4-dichlorophenyl)-6-methyl-2-oxo-1-[[(2S)-tetrahydrofuran-2-yl]methyl]-3,4-dihydropyridine-5-carboxylate] | 70 nM | 89% | 20 nM | 91%
7 | COc1ccccc1COC(=O)C1=C(C)N(C[C@H]2CCCO2)C(=O)C[C@H]1c1ccc(C(F)(F)F)nc1 (racemic) [Example 150, (2-Methoxyphenyl)methyl (4S)-6-methyl-2-oxo-1-[[(2R)-tetrahydrofuran-2-yl]methyl]-4-[6-(trifluoromethyl)-3-pyridyl]-3,4-dihydropyridine-5-carboxylate and (2-methoxyphenyl)methyl (4R)-6-methyl-2-oxo-1-[[(2S)-tetrahydrofuran-2-yl]methyl]-4-[6-(trifluoromethyl)-3-pyridyl]-3,4-dihydropyridine-5-carboxylate] | 100 nM | 99% | 25 nM | 110%
8 | COc1ccccc1COC(=O)C1=C(C)N(C[C@H]2CCCO2)C(=O)C[C@H]1c1cccnc1Cl (racemic) [Example 151, (2-Methoxyphenyl)methyl (4R)-4-(2-chloro-3-pyridyl)-6-methyl-2-oxo-1-[[(2R)-tetrahydrofuran-2-yl]methyl]-3,4-dihydropyridine-5-carboxylate and (2-methoxyphenyl)methyl (4S)-4-(2-chloro-3-pyridyl)-6-methyl-2-oxo-1-[[(2S)-tetrahydrofuran-2-yl]methyl]-3,4-dihydropyridine-5-carboxylate] | 12500 nM | 44% | 2200 nM | 87%
9 | COc1ccccc1COC(=O)C1=C(C)N(C[C@H]2CCCO2)C(=O)C[C@H]1c1ccc2nsnc2c1 (racemic) [Example 152, (2-Methoxyphenyl)methyl (4S)-4-(2,1,3-benzothiadiazol-5-yl)-6-methyl-2-oxo-1-[[(2R)-tetrahydrofuran-2-yl]methyl]-3,4-dihydropyridine-5-carboxylate and (2-methoxyphenyl)methyl (4R)-4-(2,1,3-benzothiadiazol-5-yl)-6-methyl-2-oxo-1-[[(2S)-tetrahydrofuran-2-yl]methyl]-3,4-dihydropyridine-5-carboxylate] | 48 nM | 66% | 30 nM | 106%
10 | CC1=C(C(=O)OCc2ccc(OCCS(=O)(=O)O)cc2)[C@@H](c2ccc(Cl)nc2)CC(=O)N1C[C@@H]1CCCO1.N (racemic) [Example 153, Ammonium,2-[4-[[(4S)-4-(6-chloro-3-pyridyl)-6-methyl-2-oxo-1-[[(2R)-tetrahydrofuran-2-yl]methyl]-3,4-dihydropyridine-5-carbonyl]oxymethyl]phenoxy]ethanesulfonate and ammonium,2-[4-[[(4R)-4-(6-chloro-3-pyridyl)-6-methyl-2-oxo-1-[[(2S)-tetrahydrofuran-2-yl]methyl]-3,4-dihydropyridine-5-carbonyl]oxymethyl]phenoxy]ethanesulfonate] | 130 nM | 102% | 130 nM | 101%
11 | CC1=C(C(=O)OCc2ccccc2OCCS(=O)(=O)O)[C@@H](c2ccc(Cl)nc2)CC(=O)N1C[C@@H]1CCCO1.N (racemic) [Example 158, Ammonium, 2-[2-[[(4S)-4-(6-chloro-3-pyridyl)-6-methyl-2-oxo-1-[[(2R)-tetrahydrofuran-2-yl]methyl]-3,4-dihydropyridine-5-carbonyl]oxymethyl]phenoxy]ethanesulfonate and ammonium,2-[2-[[(4R)-4-(6-chloro-3-pyridyl)-6-methyl-2-oxo-1-[[(2S)-tetrahydrofuran-2-yl]methyl]-3,4-dihydropyridine-5-carbonyl]oxymethyl]phenoxy]ethanesulfonate] | 1300 nM | 97% | 3600 nM | 74%
12 | CC1=C(C(=O)OCc2ccccc2)C(c2ccc(C)cc2)CC(=O)N1 (centres unmarked) [Compound 3, 2-Methyl-6-oxo-4-p-tolyl-1,4,5,6-tetrahydro-pyridine-3-carboxylic acid benzyl ester] | 10400 nM | 45% | 7400 nM | 65%
13 | COCCN1C(=O)CC(c2ccc(Cl)cc2)C(C(=O)OCc2ccccc2OC(F)(F)F)=C1C (centres unmarked) [Example 105, (2-trifluoromethoxyphenyl)methyl 4-(4-chlorophenyl)-1-(2-methoxyethyl)-6-methyl-2-oxo-3,4-dihydropyridine-5-carboxylate] | 800 nM | 63% | – | –
